Measurements from patent EP0195097A1, “Arachidonic acid analogues, processes for their preparation and their use in medicine” (BEECHAM GROUP PLC, priority 1985, dated 1986).

Experiments:
5-Lipoxygenase enzyme = target: T1, 5-Lipoxygenase enzyme (Rattus norvegicus, UniProt P12527); experiment: RBL-1 5-lipoxygenase screen; format: biochemical; conditions: 10,000g supernatant from RBL-1 cells; for inhibition at 20 µM: 20µM compound, decrease in formation of 5-HETE and 5,12-diHETE relative to control; for inhibition at 50 µM: 50µM compound (cells marked *, footnote: inhibition at 50µM)
T1 construct: 5-Lipoxygenase enzyme was prepared as a 10,000g supernatant from RBL-1 cells; endogenous in cells; host or cells: RBL-1 cells (10,000g supernatant)
T1 sequence (P12527 1-673): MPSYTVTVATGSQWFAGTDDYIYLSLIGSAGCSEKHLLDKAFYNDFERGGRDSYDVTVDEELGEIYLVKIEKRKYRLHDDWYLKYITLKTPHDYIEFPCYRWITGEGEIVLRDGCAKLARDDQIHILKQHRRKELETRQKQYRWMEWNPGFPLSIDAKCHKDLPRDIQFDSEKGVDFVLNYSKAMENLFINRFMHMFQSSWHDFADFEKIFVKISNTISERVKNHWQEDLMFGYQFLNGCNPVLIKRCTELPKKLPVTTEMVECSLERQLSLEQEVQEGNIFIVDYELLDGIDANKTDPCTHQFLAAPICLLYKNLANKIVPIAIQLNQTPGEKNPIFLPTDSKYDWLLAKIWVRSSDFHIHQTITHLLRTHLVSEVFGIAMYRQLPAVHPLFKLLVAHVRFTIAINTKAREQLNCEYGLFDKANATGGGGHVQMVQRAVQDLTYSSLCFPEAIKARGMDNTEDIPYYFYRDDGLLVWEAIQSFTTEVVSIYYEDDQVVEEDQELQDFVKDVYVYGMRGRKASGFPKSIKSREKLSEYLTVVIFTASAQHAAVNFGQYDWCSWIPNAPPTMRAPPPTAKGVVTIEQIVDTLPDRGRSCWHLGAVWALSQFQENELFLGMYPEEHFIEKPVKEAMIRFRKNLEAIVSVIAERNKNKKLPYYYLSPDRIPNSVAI
Experimental: 1) RBL-1 5-LIPOXYGENASE SCREEN
5-Lipoxygenase enzyme was prepared as a 10,000g supernatant from RBL-1 cells by the method of Jakschik (Jakschik, B.A., F.F. Sun, L.M.Lee, and M.M. Steinhoff, 1980, Biochem. Biophys. Res.Comm. 95, 103). The 10,000g supernatant was diluted with homogenization buffer to the equivalent of 1.5 - 2.5 x 10^7 cells. ml.-l and made 2mM with respect to CaCl2. Aliquots of 0.5ml were then dispensed into tubes, and incubated at 29 °C with 5pl ethanol or compound in ethanol at the desired concentration for 2min. Then [1-^14C] arachidonic acid was added in buffer to give a final concentration of 6.3µM and 0.2pCi per incubation, and the reaction continued at 29 °C for 2min. The reaction was terminated by adding lml of acetone and cooling on ice, 0.5ml of ice-cold saline and 100pl of 2M formic acid were added, and the mixture was extracted with 2 x 2ml of chloroform. The extract was stored under N2 at -20 °C until analysis by chromatography. Activity was measured as the percentage of total radioactivity found in 5-HETE and 5,12-diHETE, and inhibition calculated as the decrease in formation of the sum of these two species in compound-treated incubates relative to control incubations.

cyclo-oxygenase = target: T2, cyclo-oxygenase (Bos taurus, UniProt O62664); experiment: Cyclo-oxygenase screen; format: biochemical; conditions: 50µM compound; bovine seminal vesicle microsomes; decrease in prostaglandin formation
T2 construct: comprising 0.96mg lyophilised bovine seminal vesicle microsomes; from tissue; host or cells: bovine seminal vesicle microsomes (lyophilised)
T2 sequence (O62664 25-600): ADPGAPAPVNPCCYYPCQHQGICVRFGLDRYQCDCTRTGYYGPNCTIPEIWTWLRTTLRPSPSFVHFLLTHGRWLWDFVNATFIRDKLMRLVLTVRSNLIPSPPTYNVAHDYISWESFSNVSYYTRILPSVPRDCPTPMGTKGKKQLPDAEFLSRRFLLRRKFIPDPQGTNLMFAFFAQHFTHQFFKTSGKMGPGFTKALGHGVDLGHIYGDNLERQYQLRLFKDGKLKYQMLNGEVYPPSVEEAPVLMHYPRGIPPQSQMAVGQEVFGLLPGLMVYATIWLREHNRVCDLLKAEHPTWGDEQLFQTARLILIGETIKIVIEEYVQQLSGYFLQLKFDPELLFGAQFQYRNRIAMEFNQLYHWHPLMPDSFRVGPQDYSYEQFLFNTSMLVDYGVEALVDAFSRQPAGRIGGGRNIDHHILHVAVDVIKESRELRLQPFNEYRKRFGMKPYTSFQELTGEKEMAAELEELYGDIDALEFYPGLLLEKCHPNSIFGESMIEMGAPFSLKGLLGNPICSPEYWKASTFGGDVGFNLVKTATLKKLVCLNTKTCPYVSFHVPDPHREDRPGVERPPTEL
Experimental: 2) Cyclo-oxygenase Screen
Compounds were preincubated with the incubation constitutents for 5 min at 37 °C before the reaction was started by the addition of the arachidonic acid. The reaction was continued at 37 °C for 2 min, then stopped by placing the incubations on ice and the addition of 1.2ml 0.2M citric acid. Unmetabolised substrate and prostaglandin products were extracted in ethyl acetate (2 x 4ml), the combined extracts washed with 0.8ml water, and separated by thin-layer chromatography (Kieselgel GF254 plates in ethyl acetate:acetone:glacial acetic acid, 90:10:1, v/v). Recovery was 65-80%. The regions on the thin-layer chromatography plate that chromatographed with authentic arachidonic acid or prostaglandins E2 and F2a (Rf's 0.70, 0.28 and 0.16 respectively) were scraped and the radioactivity in each determined by liquid scintillation counting with a correction for quenching being made by the external standard-channels ratio method. Inhibition of cyclo-oxygenase activity was calculated from the decrease in prostaglandin formation. Each compound concentration was tested in triplicate and the 50% inhibitory concentration, if determined, was calculated by linear regression from the inhibitory data at, at least three different compound concentrations.

CCCCCCCCCCC/C=C\c1cccc(C=C(C(=O)O)C(=O)O)c1 [Example 63]
inhibition at 20 µM (5-Lipoxygenase enzyme): 82%

CCCCCCC#Cc1ccccc1OCCCC(C(=O)O)C(=O)OCC (centres unmarked) [Example 55]
inhibition at 20 µM (5-Lipoxygenase enzyme): 63%

CCCCCCCCCCC/C=C\c1ccccc1C=C(C(=O)O)C(=O)O [Example 29]
inhibition at 20 µM (5-Lipoxygenase enzyme): 67%

CCCCCC/C=C\c1ccc(C=C(C(=O)O)C(=O)O)cc1 [Example 64]
inhibition at 20 µM (5-Lipoxygenase enzyme): 49%

CCCCCCCCCCCC#Cc1cccc(CC(C(=O)O)C(=O)O)c1 [Example 52]
inhibition at 20 µM (5-Lipoxygenase enzyme): 51%

CCCCCCC#Cc1ccc(C=C(C(=O)O)C(=O)OC)cc1 [Example 49]
inhibition at 20 µM (5-Lipoxygenase enzyme): 15%

CCCCCCCCCCCC#Cc1ccccc1CC(C(=O)O)C(=O)O [Example 28]
inhibition at 50 µM (cyclo-oxygenase): 76% | inhibition at 20 µM (5-Lipoxygenase enzyme): 63%

CCCCCC/C=C\c1cccc(OCCCC(C(=O)O)C(=O)O)c1 [Example 69]
inhibition at 20 µM (5-Lipoxygenase enzyme): 44%

CCCCCCCCCCCC#Cc1ccccc1C=C(C(=O)O)C(=O)O [Example 25]
inhibition at 50 µM (cyclo-oxygenase): 59% | inhibition at 50 µM (5-Lipoxygenase enzyme): 55%

CCCCCCCCCCCC#Cc1cccc(C=C(C(=O)O)C(=O)O)c1 [Example 51]
inhibition at 20 µM (5-Lipoxygenase enzyme): 25%

CCCCCCC#Cc1ccccc1OCCCC(C(=O)O)C(=O)O [Example 57]
inhibition at 20 µM (5-Lipoxygenase enzyme): 54%

CCCCCCCCCCCC#Cc1ccc(C=C(C(=O)O)C(=O)O)cc1 [Example 27]
inhibition at 50 µM (cyclo-oxygenase): 59%

CCCCCC/C=C\c1cccc(OCCCC(C(=O)O)C(=O)OCC)c1 (centres unmarked) [Example 68]
inhibition at 50 µM (cyclo-oxygenase): 40% | inhibition at 20 µM (5-Lipoxygenase enzyme): 62.5%

CCCCCCC#Cc1ccc(C=C(C(=O)O)C(=O)O)cc1 [Example 50]
inhibition at 20 µM (5-Lipoxygenase enzyme): 16%

CCCCCCCCCCCC#Cc1ccccc1C=C(C(=O)O)C(=O)OCC [Example 24]
inhibition at 50 µM (cyclo-oxygenase): 70% | inhibition at 50 µM (5-Lipoxygenase enzyme): 60%

CCCCCCC#Cc1cccc(OCCCC(C(=O)O)C(=O)OCC)c1 (centres unmarked) [Example 56]
inhibition at 50 µM (5-Lipoxygenase enzyme): 52%

CCCCCCC#Cc1cccc(OCCCC(C(=O)O)C(=O)O)c1 [Example 58]
inhibition at 50 µM (cyclo-oxygenase): 38% | inhibition at 50 µM (5-Lipoxygenase enzyme): 45%

CCCCCCCCCCC/C=C\c1cccc(CC(C(=O)O)C(=O)O)c1 [Example 66]
inhibition at 20 µM (5-Lipoxygenase enzyme): 84%
